Laboratory results published in PubChem BioAssay (NCI).
“And” between values parts separate entries of the source, which are not always exact repeats. Identical values can stand only once.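 Step 1: Grow cells in 96-well plates. Step 2: Expose to compound for 48 hours at 5 concentrations. Step 3: Interpolate endpoints linearly; if unreached, use highest concentration. GI50 marks 50% less growth. The concentration for full growth arrest is given as TGI.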

Legend:
Assay in all cases: NCI tumour cell line growth inhibition, 48 h
SF-268 CNS = test system: SF-268 CNS
KM12 colon = test system: KM12 colon
SNB-75 CNS = test system: SNB-75 CNS
DMS 273 small cell lung = test system: DMS 273 small cell lung
NCI-H522 lung = test system: NCI-H522 lung
K-562 leukemia = test system: K-562 leukemia
DMS 114 small cell lung = test system: DMS 114 small cell lung
HOP-92 NSCLC = test system: HOP-92 NSCLC
MOLT-4 leukemia = test system: MOLT-4 leukemia
786-0 renal = test system: 786-0 renal
HCT-116 colon = test system: HCT-116 colon
OVCAR-3 ovarian = test system: OVCAR-3 ovarian
HOP-62 NSCLC = test system: HOP-62 NSCLC
HCC-2998 colon = test system: HCC-2998 colon
SNB-19 CNS = test system: SNB-19 CNS
SF-539 CNS = test system: SF-539 CNS
NCI-H460 lung = test system: NCI-H460 lung
KM20L2 colon = test system: KM20L2 colon
MALME-3M melanoma = test system: MALME-3M melanoma
SW-620 colon = test system: SW-620 colon
HT29 colon = test system: HT29 colon
TK-10 renal = test system: TK-10 renal
HOP-18 NSCLC = test system: HOP-18 NSCLC
SK-MEL-2 melanoma = test system: SK-MEL-2 melanoma
M19-MEL melanoma = test system: M19-MEL melanoma
OVCAR-8 ovarian = test system: OVCAR-8 ovarian
SN12C renal = test system: SN12C renal
NCI-H23 lung = test system: NCI-H23 lung
UACC-257 melanoma = test system: UACC-257 melanoma
OVCAR-4 ovarian = test system: OVCAR-4 ovarian
HCT-15 colon = test system: HCT-15 colon
SNB-78 CNS = test system: SNB-78 CNS
EKVX NSCLC = test system: EKVX NSCLC
SK-MEL-5 melanoma = test system: SK-MEL-5 melanoma
RPMI-8226 leukemia = test system: RPMI-8226 leukemia
SK-OV-3 ovarian = test system: SK-OV-3 ovarian
ACHN renal = test system: ACHN renal
SR leukemia = test system: SR leukemia
HL-60(TB) leukemia = test system: HL-60(TB) leukemia
XF 498 CNS = test system: XF 498 CNS
LXFL 529 NSCLC = test system: LXFL 529 NSCLC
M14 melanoma = test system: M14 melanoma
NCI-H226 lung = test system: NCI-H226 lung
IGROV1 ovarian = test system: IGROV1 ovarian
DLD-1 colon = test system: DLD-1 colon
CCRF-CEM leukemia = test system: CCRF-CEM leukemia
RXF 393 renal = test system: RXF 393 renal
UO-31 renal = test system: UO-31 renal
UACC-62 melanoma = test system: UACC-62 melanoma
CAKI-1 renal = test system: CAKI-1 renal
U251 CNS = test system: U251 CNS
A498 renal = test system: A498 renal
SF-295 CNS = test system: SF-295 CNS
OVCAR-5 ovarian = test system: OVCAR-5 ovarian
A549 NSCLC = test system: A549 NSCLC
COLO 205 colon = test system: COLO 205 colon
SK-MEL-28 melanoma = test system: SK-MEL-28 melanoma

CSc1nc(-c2ccc(Cl)cc2)c(C#N)c(=O)n1C1OC(COC(C)=O)C(OC(C)=O)C(OC(C)=O)C1OC(C)=O (centres undefined)
GI50 (SF-268 CNS): 12.4 µM and > 100 µM
TGI (SF-268 CNS): 55.2 µM and > 100 µM
TGI (KM12 colon): > 100 µM
GI50 (SNB-75 CNS): 14.8 µM and > 100 µM
TGI (SNB-75 CNS): 31.9 µM and > 100 µM
TGI (DMS 273 small cell lung): > 100 µM
GI50 (NCI-H522 lung): 12.1 µM and > 100 µM
TGI (NCI-H522 lung): 29.2 µM and > 100 µM
TGI (K-562 leukemia): > 100 µM
GI50 (DMS 114 small cell lung): 24.6 µM and > 100 µM
TGI (DMS 114 small cell lung): > 100 µM
GI50 (HOP-92 NSCLC): 10.4 µM and 4.43 µM
TGI (HOP-92 NSCLC): 32 µM and 82.7 µM
TGI (MOLT-4 leukemia): > 100 µM
TGI (786-0 renal): > 100 µM
GI50 (HCT-116 colon): 23.1 µM and > 100 µM
TGI (HCT-116 colon): > 100 µM
TGI (OVCAR-3 ovarian): 33.2 µM
GI50 (HOP-62 NSCLC): 23.6 µM and > 100 µM
TGI (HOP-62 NSCLC): 57.1 µM and > 100 µM
TGI (HCC-2998 colon): > 100 µM
GI50 (SNB-19 CNS): 13.9 µM and > 100 µM
TGI (SNB-19 CNS): 39.4 µM and > 100 µM
GI50 (SF-539 CNS): 15.2 µM and > 100 µM
TGI (SF-539 CNS): 31.6 µM and > 100 µM
GI50 (NCI-H460 lung): 27.3 µM and > 100 µM
TGI (NCI-H460 lung): > 100 µM
GI50 (KM20L2 colon): 35 µM and > 100 µM
TGI (KM20L2 colon): > 100 µM
GI50 (MALME-3M melanoma): 30.7 µM and 77.8 µM
TGI (MALME-3M melanoma): > 100 µM
TGI (SW-620 colon): > 100 µM
GI50 (HT29 colon): 29.3 µM and > 100 µM
TGI (HT29 colon): > 100 µM
TGI (TK-10 renal): > 100 µM
TGI (HOP-18 NSCLC): > 100 µM
TGI (SK-MEL-2 melanoma): > 100 µM
GI50 (M19-MEL melanoma): 34.3 µM and > 100 µM
TGI (M19-MEL melanoma): > 100 µM
TGI (OVCAR-8 ovarian): > 100 µM
TGI (SN12C renal): > 100 µM
GI50 (NCI-H23 lung): 22.2 µM and > 100 µM
TGI (NCI-H23 lung): > 100 µM
GI50 (UACC-257 melanoma): 14.5 µM and > 100 µM
TGI (UACC-257 melanoma): 38.8 µM and > 100 µM
GI50 (OVCAR-4 ovarian): > 100 µM
TGI (OVCAR-4 ovarian): > 100 µM
TGI (HCT-15 colon): > 100 µM
GI50 (SNB-78 CNS): 12.4 µM and > 100 µM
TGI (SNB-78 CNS): 39.6 µM and > 100 µM
TGI (EKVX NSCLC): > 100 µM
TGI (SK-MEL-5 melanoma): > 100 µM
GI50 (RPMI-8226 leukemia): 34.6 µM and > 100 µM
TGI (RPMI-8226 leukemia): > 100 µM
GI50 (SK-OV-3 ovarian): 25.3 µM and > 100 µM
TGI (SK-OV-3 ovarian): 70.3 µM and > 100 µM
GI50 (ACHN renal): 24 µM and > 100 µM
TGI (ACHN renal): > 100 µM
TGI (SR leukemia): > 100 µM
TGI (HL-60(TB) leukemia): > 100 µM
TGI (XF 498 CNS): > 100 µM
GI50 (LXFL 529 NSCLC): 26 µM and > 100 µM
TGI (LXFL 529 NSCLC): > 100 µM
GI50 (M14 melanoma): 34.7 µM and 88.9 µM
TGI (M14 melanoma): > 100 µM
TGI (NCI-H226 lung): > 100 µM
TGI (IGROV1 ovarian): > 100 µM
TGI (DLD-1 colon): > 100 µM
GI50 (CCRF-CEM leukemia): > 7.5 µM and 65.1 µM
TGI (CCRF-CEM leukemia): > 100 µM
GI50 (RXF 393 renal): 10.6 µM and > 100 µM
TGI (RXF 393 renal): 25.6 µM and > 100 µM
GI50 (UO-31 renal): 10.4 µM and > 100 µM
TGI (UO-31 renal): 23.5 µM and > 100 µM
GI50 (UACC-62 melanoma): 30.5 µM and > 100 µM
TGI (UACC-62 melanoma): > 100 µM
TGI (CAKI-1 renal): > 100 µM
GI50 (U251 CNS): 20.6 µM and > 100 µM
TGI (U251 CNS): 71.6 µM and > 100 µM
GI50 (A498 renal): 17.6 µM and > 100 µM
TGI (A498 renal): 38.9 µM and > 100 µM
GI50 (SF-295 CNS): 14.8 µM and > 100 µM
TGI (SF-295 CNS): 39 µM and > 100 µM
GI50 (OVCAR-5 ovarian): 31.3 µM and > 100 µM
TGI (OVCAR-5 ovarian): > 100 µM
TGI (A549 NSCLC): > 100 µM
TGI (COLO 205 colon): > 100 µM
GI50 (SK-MEL-28 melanoma): 27.6 µM and > 100 µM
TGI (SK-MEL-28 melanoma): > 100 µM
